“And” between values parts separate entries of the source, which are not always exact repeats. Equal entries are not always repeated. Toxic doses and inconclusive results are not listed. How the source made its calls: active means survival T/C of 150% or more; inactive means T/C below 125% in these data. Peptide text beside a SMILES is read from it. * marks the point of attachment. Cbz = O=C(OCc1ccccc1)*
Test system: P388 leukemia ip, CD2F1 mice, survival T/C
Assay: NCI In Vivo Anticancer Drug Screen. Data for tumor model P388 Leukemia (intraperitoneal) in CD2F1 (CDF1) mice
Conditions: endpoint: median survival time, higher = longer survival
Summary of the method: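 Mice carrying the transplanted tumor received test compound or vehicle. Survival was recorded in each group, and the value is the treated-group measurement divided by that of the vehicle-treated control group.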

[1] = dose: 50.0 mg/kg/injection, schedule: Q01DX009 (ip), vehicle: saline with Tween-80
[2] = dose: 100.0 mg/kg/injection, schedule: Q01DX009 (ip), vehicle: saline with Tween-80
[3] = dose: 100.0 mg/kg/injection, schedule: Q04DX003 (ip), vehicle: saline with Tween-80
[4] = dose: 200.0 mg/kg/injection, schedule: Q01DX009 (ip), vehicle: saline with Tween-80
[5] = dose: 200.0 mg/kg/injection, schedule: Q04DX003 (ip), vehicle: saline with Tween-80
[6] = dose: 100.0 mg/kg/injection, schedule: Q04DX003 (ip), vehicle: Klucel (hydroxypropylcellulose) (HPC)
[7] = dose: 200.0 mg/kg/injection, schedule: Q04DX003 (ip), vehicle: Klucel (hydroxypropylcellulose) (HPC)
[8] = dose: 400.0 mg/kg/injection, schedule: Q04DX003 (ip), vehicle: Klucel (hydroxypropylcellulose) (HPC)
[9] = dose: 50.0 mg/kg/injection, schedule: Q01DX009 (ip), vehicle: Klucel (hydroxypropylcellulose) (HPC)
[10] = dose: 100.0 mg/kg/injection, schedule: Q01DX009 (ip), vehicle: Klucel (hydroxypropylcellulose) (HPC)
[11] = dose: 200.0 mg/kg/injection, schedule: Q01DX009 (ip), vehicle: Klucel (hydroxypropylcellulose) (HPC)
[12] = dose: 50.0 mg/kg/injection, schedule: Q01DX005 (ip), vehicle: Klucel (hydroxypropylcellulose) (HPC)
[13] = dose: 100.0 mg/kg/injection, schedule: Q01DX005 (ip), vehicle: Klucel (hydroxypropylcellulose) (HPC)
[14] = dose: 200.0 mg/kg/injection, schedule: Q01DX005 (ip), vehicle: Klucel (hydroxypropylcellulose) (HPC)
[15] = dose: 60.0 mg/kg/injection, schedule: Q01DX005 (ip), vehicle: saline with Tween-80
[16] = dose: 120.0 mg/kg/injection, schedule: Q01DX005 (ip), vehicle: saline with Tween-80
[17] = dose: 240.0 mg/kg/injection, schedule: Q01DX005 (ip), vehicle: saline with Tween-80
[18] = dose: 50.0 mg/kg/injection, schedule: Q01DX009 (ip), vehicle: saline
[19] = dose: 100.0 mg/kg/injection, schedule: Q01DX009 (ip), vehicle: saline
[20] = dose: 50.0 mg/kg/injection, schedule: Q01DX005 (ip), vehicle: saline with Tween-80
[21] = dose: 100.0 mg/kg/injection, schedule: Q01DX005 (ip), vehicle: saline with Tween-80
[22] = dose: 50.0 mg/kg/injection, schedule: Q01DX005 (ip), vehicle: distilled water + alcohol
[23] = dose: 100.0 mg/kg/injection, schedule: Q01DX005 (ip), vehicle: distilled water + alcohol
[24] = dose: 200.0 mg/kg/injection, schedule: Q01DX005 (ip), vehicle: distilled water + alcohol

Measured: T/C

COC(=O)C1CC(=O)N(C)c2sc(C)c(C)c2C1=O (stereo not drawn)
inactive: dose: 25.0 mg/kg/injection, schedule: Q01DX009 (ip), vehicle: saline with Tween-80 103 % of control | [1] 93 % of control | [2] 94 % of control | [3] 97 % of control | [4] 94 % of control | [5] 93 % of control

c1ccc(CN2Cc3c(n(-c4ccccc4)c4ccccc34)C2)cc1
inactive: [6] 105 % of control | [7] 112 % of control | [8] 114 % of control

CCN(CC)c1ccc(/C=C2\CCc3ccccc3C2=O)cc1
inactive: [9] 108 % of control | [10] 111 % of control | [11] 106 % of control

O=C1Nc2cnc(Cl)nc2Nc2ccc(Cl)cc21
inactive: [12] 92 % of control | [13] 99 % of control | [14] 89 % of control

O=[N+]([O-])c1ccccc1N/N=C\c1c(Cl)[nH]c2ccccc12
inactive: [12] 90 % of control | [13] 95 % of control | dose: 100.0 mg/kg/injection, schedule: Q04DX002 (ip), vehicle: Klucel (hydroxypropylcellulose) (HPC) 90 % of control | dose: 200.0 mg/kg/injection, schedule: Q04DX002 (ip), vehicle: Klucel (hydroxypropylcellulose) (HPC) 91 % of control | dose: 400.0 mg/kg/injection, schedule: Q04DX002 (ip), vehicle: Klucel (hydroxypropylcellulose) (HPC) 95 % of control

FC(F)(F)C(F)(F)C(F)(F)C(F)(F)C(F)(F)C(F)(F)C[CH2][Sn]([Br])([Br])[CH2]CC(F)(F)C(F)(F)C(F)(F)C(F)(F)C(F)(F)C(F)(F)F
inactive: [15] 109 % of control | [16] 105 % of control | [17] 108 % of control

NSc1nc2ccccc2s1
inactive: [3] 100 % of control | [5] 100 % of control

CC1=CCC2(C)C(=O)CC3(C)C(CCC4C5(C)CCC(=O)C(C)(C)C5CCC43C)C2C1C (stereo not drawn)
inactive: dose: 1.75 mg/kg/injection, schedule: Q01DX009 (ip), vehicle: saline 103 % of control and 121 % of control | dose: 3.5 mg/kg/injection, schedule: Q01DX009 (ip), vehicle: saline 99 % of control and 114 % of control | dose: 7.0 mg/kg/injection, schedule: Q01DX009 (ip), vehicle: saline 110 % of control and 118 % of control

CC(C)=C(C#N)NC(C)(C)C
inactive: dose: 12.5 mg/kg/injection, schedule: Q01DX009 (ip), vehicle: saline 101 % of control | dose: 25.0 mg/kg/injection, schedule: Q01DX009 (ip), vehicle: saline 100 % of control | [18] 98 % of control and 94 % of control

CCn1c(=O)c2[nH]c(=S)[nH]c2n(CC)c1=O
inactive: dose: 16.0 mg/kg/injection, schedule: Q01DX009 (ip), vehicle: Klucel (hydroxypropylcellulose) (HPC) 108 % of control | dose: 32.0 mg/kg/injection, schedule: Q01DX009 (ip), vehicle: Klucel (hydroxypropylcellulose) (HPC) 104 % of control | [9] 105 % of control | dose: 64.0 mg/kg/injection, schedule: Q01DX009 (ip), vehicle: Klucel (hydroxypropylcellulose) (HPC) 107 % of control | [10] 95 % of control | [11] 102 % of control

CCOC(=O)/C(=N\N=P(N(C)C)(N(C)C)N(C)C)[As](C)C
inactive: [18] 103 % of control | [19] 99 % of control

Cn1c(-c2ccccc2)c2c(=O)oc3ccccc3c2c1-c1ccccc1
inactive: dose: 25.0 mg/kg/injection, schedule: Q04DX003 (ip), vehicle: Klucel (hydroxypropylcellulose) (HPC) 97 % of control | dose: 50.0 mg/kg/injection, schedule: Q04DX003 (ip), vehicle: Klucel (hydroxypropylcellulose) (HPC) 100 % of control | [6] 88 % of control and 94 % of control

O=C1C=CC(Cc2ccccc2)N1C(=O)c1ccccc1 (stereo not drawn)
inactive: [20] 99 % of control | [21] 100 % of control | dose: 200.0 mg/kg/injection, schedule: Q01DX005 (ip), vehicle: saline with Tween-80 97 % of control

O=C1C(Cl)OC(c2ccccc2)=NN1c1ccccc1 (stereo not drawn)
inactive: [22] 97 % of control | [23] 107 % of control | [24] 97 % of control

CC(C)CNC(=O)CNC(=O)C=[N+]=[N-]
inactive: [1] 104 % of control | [2] 104 % of control | [4] 104 % of control

COc1ccc(C(Nc2ncccn2)c2cc(C(C)(C)C)cc(C(C)(C)C)c2O)cc1 (stereo not drawn)
inactive: [22] 101 % of control | [23] 101 % of control | [24] 97 % of control

CC(=O)N(C)c1ccc(NC(=O)Nc2cc(C)ccc2C)cc1
inactive: [18] 91 % of control | [19] 88 % of control

CCOC(=O)C(Cc1c[nH]c2ccccc12)NC(=O)C(Cc1ccccc1)NC(=O)C(Cc1cnc[nH]1)NC(=O)OCc1ccccc1 (stereo not drawn) (Cbz-His-Phe-Trp-OEt; configuration not given here)
inactive: [12] 93 % of control | [13] 93 % of control | [14] 89 % of control

C=C(C)OP(=O)(OCC)OCC
inactive: dose: 100.0 mg/kg/injection, schedule: Q01DX001 (ip), vehicle: Klucel (hydroxypropylcellulose) (HPC) 100 % of control | dose: 200.0 mg/kg/injection, schedule: Q01DX001 (ip), vehicle: Klucel (hydroxypropylcellulose) (HPC) 111 % of control | dose: 400.0 mg/kg/injection, schedule: Q01DX001 (ip), vehicle: Klucel (hydroxypropylcellulose) (HPC) 102 % of control

COC(=O)c1[c]([Sn]([CH3])([CH3])[CH3])n[n]([Sn]([CH3])([CH3])[CH3])c1C(=O)OC
inactive: dose: 6.25 mg/kg/injection, schedule: Q04DX003 (ip), vehicle: saline 98 % of control | dose: 12.5 mg/kg/injection, schedule: Q04DX003 (ip), vehicle: saline 98 % of control

Cc1c([O-])[n+]2cccc3ccn(c1=O)c32
inactive: dose: 60.0 mg/kg/injection, schedule: Q01DX005 (ip), vehicle: Klucel (hydroxypropylcellulose) (HPC) 97 % of control | dose: 120.0 mg/kg/injection, schedule: Q01DX005 (ip), vehicle: Klucel (hydroxypropylcellulose) (HPC) 100 % of control | dose: 240.0 mg/kg/injection, schedule: Q01DX005 (ip), vehicle: Klucel (hydroxypropylcellulose) (HPC) 94 % of control

Cn1c([N+](=O)[O-])cnc1CSC(=S)N1CCN(C(=S)SCc2ncc([N+](=O)[O-])n2C)CC1
inactive: [1] 99 % of control and 104 % of control and 96 % of control | [2] 101 % of control and 93 % of control and 95 % of control | [4] 102 % of control and 107 % of control and 92 % of control

CC(N)c1ccccc1 (stereo not drawn) (tested in a mixture with another compound)
inactive: [1] 104 % of control | [2] 99 % of control | [4] 99 % of control

COc1ccc(-c2cnc(C(N)=O)c(=O)[nH]2)cc1
inactive: [3] 104 % of control | [5] 95 % of control | dose: 400.0 mg/kg/injection, schedule: Q04DX003 (ip), vehicle: saline with Tween-80 100 % of control

Cc1cc(N/N=C/c2ccccn2)nc2ccccc12
inactive: dose: 12.5 mg/kg/injection, schedule: Q01DX005 (ip), vehicle: Klucel (hydroxypropylcellulose) (HPC) 101 % of control | dose: 25.0 mg/kg/injection, schedule: Q01DX005 (ip), vehicle: Klucel (hydroxypropylcellulose) (HPC) 112 % of control

CCC(C)C(NC(=O)C(Cc1cnc[nH]1)N(C(=O)OCc1ccccc1)C(=O)OCc1ccccc1)C(=O)OCc1ccccc1 (stereo not drawn)
inactive: [20] 100 % of control | [21] 93 % of control

C/C(CCl)=N/NC1=NC(c2ccccc2Cl)P(=O)(NCCCNP2(=O)SC(N/N=C(/C)CCl)=NC2c2ccccc2Cl)S1 (stereo not drawn)
inactive: [15] 99 % of control | [16] 98 % of control | [17] 93 % of control

CN(C)C1=NC(NCc2ccccc2)(N(C)C)OC(N(C)C)=N1 (stereo not drawn)
inactive: dose: 25.0 mg/kg/injection, schedule: Q01DX005 (ip), vehicle: saline 107 % of control | dose: 50.0 mg/kg/injection, schedule: Q01DX005 (ip), vehicle: saline 96 % of control

C=C(C)C1CC=C(C)/C(=N/NC(=O)c2ccccn2)C1 (stereo not drawn)
inactive: [6] 111 % of control | [7] 94 % of control | [8] 94 % of control

Reference: PubChem BioAssay AID330 (DTP/NCI, 2004)
